pIC50: −log10 of the molar value.

One test has as its target T1, LipA (Acinetobacter baumannii, UniProt A0ABX6CKD6).
T1 construct: gene lip; secreted LipA from plasmid-encoded lipBA, in culture supernatant
Put plainly: 4-nitrophenyl myristate lipase assay; IC50 in whole culture, direct inhibition by cell-free supernatant counter-screen.
Conditions: not given
The test is classed as cell-based. On the technique in general: The purpose of a counterscreen is to sort out artefacts and off-target activity.
For the molecule `CNCCCN1c2ccccc2CCc2ccccc21` [Desiprimine], the pIC50 (as a rule, the IC50 on a negative log10 scale, so that one unit is a factor of ten) was 4.78. `CCCCCCCCCCC[C@@H](C[C@@H]1OC(=O)[C@H]1CCCCCC)OC(=O)[C@H](CC(C)C)NC=O` [Orlistat] had a pIC50 of 7.39.

Still in this test, the particulars now being: read-out: IC50.
Turning to `CNCCC=C1c2ccccc2CCc2ccccc21` [Aventyl], the negative logarithm of the IC50 (pIC50) was 4.84.

For `CN(CCCN1c2ccccc2CCc2ccccc21)CC(=O)c1ccc(Cl)cc1` [Lofepramine], the pIC50 was 4.68. Regarding `CNCCC=C1c2ccccc2C=Cc2ccccc21` [Norcyclobenzaprine], the negative logarithm of the IC50 (pIC50) was 4.80. Same read-out and setting: the figure for `CNCCCC1c2ccccc2C=Cc2ccccc21` [Vivactil] is 5.00.

Values taken from publication PMC5581314, “Targeting the Type II Secretion System: Development, Optimization, and Validation of a High-Throughput Screen for the Identification of Small Molecule Inhibitors” (Frontiers in Cellular and Infection Microbiology, 2017).
